Data set [1] is described as follows: Antiproliferative activity against 2D culture of human T47D cells after 72 hrs MTS assay. The format is functional, cell-based.
A short description of data set [2]: Antiproliferative activity against 3D culture of human SK-BR-3 cells after 72 hrs MTS assay. The data set is classed as functional, cell-based. The note with it: SK-BR-3, 72 h.
Data set [3] can be described thus: Antiproliferative activity against 2D culture of human SK-BR-3 cells after 72 hrs MTS assay. The format is functional, cell-based. The note with it: SK-BR-3, 72 h.
Data set [4] is described as follows: Antiproliferative activity against 3D culture of human MDA-MB-231 cells after 72 hrs MTS assay. The format is functional, cell-based. As to conditions: MDA-MB-231, 72 h.
A short description of data set [5]: Lipophilicity, log D of the compound at pH 7.4 by HPLC method. As to conditions: buffer, read-out: logD. The data set is classed as physicochemical.
Data set [6] in a line: Lipophilicity, log D of the compound at pH 2.7 by HPLC method. The format is physicochemical. The note with it: buffer.
The nature of data set [7]: Antiproliferative activity against 3D culture of human T47D cells after 72 hrs MTS assay. The format is functional, cell-based.
The nature of data set [8]: Antiproliferative activity against 2D culture of human MDA-MB-231 cells after 72 hrs MTS assay. The format is functional, cell-based. The note with it: MDA-MB-231, 72 h.

pIC50: −log10 of the molar value.

Take `N#Cc1c(N2CCNCC2)c2sc3ccccc3c2n2c1nc1ccccc12`: the pIC50 was 5.30 in data set [1]; below 4.52 in data set [2]; 5.40 in data set [3]; 5.30 in data set [4]; below 4.52 in data set [7]; 5.30 in data set [8]. The logD in data set [5] is 3.44; in data set [6], 1.08.

Take `N#Cc1c(=O)c2sc3ccccc3c2n2c1[nH]c1ccccc12`: the pIC50 in data set [1], in data set [2], in data set [3], in data set [4], in data set [7] and in data set [8] was below 4.52 throughout. Further, the logD is 2.95 in data set [5] and 3.76 in data set [6].

In the case of `N#Cc1c(Cl)c2sc3ccccc3c2n2c1nc1ccccc12`, the pIC50 in data set [1] is 6.00; in data set [2] it was below 4.52; in data set [3], below 4.52; in data set [4], below 4.52; in data set [7] it was below 4.52; in data set [8] it was below 4.52. The logD in data set [5] is 7.32; in data set [6] it was 7.38.

Take `N#Cc1c(=O)c2sc3cc(F)ccc3c2n2c1[nH]c1ccccc12`: the pIC50 in data set [1], in data set [2], in data set [3], in data set [4], in data set [7] and in data set [8] was below 4.52 each time. The logD in data set [5] came to 3.2; in data set [6], 4.04.

As for `N#Cc1c(Cl)c2sc3cc(F)ccc3c2n2c1nc1ccccc12`, the pIC50 in data set [1], in data set [2], in data set [3], in data set [4], in data set [7] and in data set [8] was below 4.52 throughout. Moreover, the logD was 3.2 in data set [5] and 4.04 in data set [6].

Consider `N#Cc1c(N2CCCCC2)c2sc3ccccc3c2n2c1nc1ccccc12`, for which the pIC50 is 5.30 in data set [1]; below 4.52 in data set [2]; below 4.52 in data set [3]; below 4.52 in data set [4]; below 4.52 in data set [7]; 5.22 in data set [8]. For the same molecule, the logD is 8.34 in data set [5] and 7.7 in data set [6].

Source of the values: ChEMBL document CHEMBL3877278, “Antiproliferative activity of amino substituted benzo[b]thieno[2,3-b]pyrido[1,2-a]benzimidazoles explored by 2D and 3D cell culture system” (Eur J Med Chem, 2017).
